From patent US12077503B2, “Substituted cyclic amides and their use as herbicides” (FMC CORPORATION, priority 2015, dated 2024)

Assays:
Type in all cases: in vivo
[1] = test system: barnyardgrass (Echinochloa crus-galli); assay: Test A preemergence; conditions: Echinochloa crus-galli, pre-emergence, 240 h, Preemergence
Procedure, shortened: (§1)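 Preemergence directed soil spray on seeded pots, or postemergence application to plants 2–10 cm, one- to two-leaf. Solvent mixture non-phytotoxic, with surfactant. Scored ~10 d later, visually, 0–100 vs untreated.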

[2] = test system: Kochia (Kochia scoparia); assay: Test A preemergence; conditions: Bassia scoparia, pre-emergence, 240 h, Preemergence
Procedure, shortened: as §1

[3] = test system: ryegrass, Italian (Italian ryegrass, Lolium multiflorum); assay: Test A preemergence; conditions: Lolium multiflorum, pre-emergence, 240 h, Preemergence
Procedure, shortened: as §1

[4] = test system: giant foxtail (Setaria faberii); assay: Test A preemergence; conditions: Setaria faberi, pre-emergence, 240 h, Preemergence
Procedure, shortened: as §1

[5] = test system: ragweed (common ragweed, Ambrosia elatior); assay: Test A preemergence; conditions: Ambrosia artemisiifolia, pre-emergence, 240 h, Preemergence
Procedure, shortened: as §1

[6] = test system: pigweed (Amaranthus retroflexus); assay: Test A preemergence; conditions: Amaranthus retroflexus, pre-emergence, 240 h, Preemergence
[7] = test system: barnyardgrass (Echinochloa crus-galli); assay: Test B flooded paddy test; conditions: Echinochloa crus-galli, Flood, 250 g ai/ha; scale of 0 to 100 where 0 is no effect and 100 is complete control; read-out: Barnyardgrass plant response rating
Procedure, shortened: (§2)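 Evaluation by eye, against controls, occurred 13–15 d post-treatment in a greenhouse, using a 0 (no effect) to 100 (complete control) scale. Application was into the paddy water, 3 cm deep over the soil, on 2-leaf plants.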

[8] = test system: rice (Oryra sativa); assay: Test B flooded paddy test; conditions: Oryza sativa, Flood, 250 g ai/ha; scale of 0 to 100 where 0 is no effect and 100 is complete control; read-out: Rice plant response rating
Procedure, shortened: as §2

[9] = test system: ducksalad (Heteranthera limosa); assay: Test B flooded paddy test; conditions: Heteranthera limosa, Flood, 250 g ai/ha; scale of 0 to 100 where 0 is no effect and 100 is complete control; read-out: Ducksalad plant response rating
Procedure, shortened: as §2

[10] = test system: sedge, umbrella (small-flower umbrella sedge, Cyperus difformis); assay: Test B flooded paddy test; conditions: Cyperus difformis, 250 g ai/ha, Flood; 0 to 100 scale where 0 is no effect and 100 is complete control; read-out: Sedge, Umbrella plant response rating
Procedure, shortened: as §2

[11] = test system: barnyardgrass (Echinochloa crus-galli); assay: Test A postemergence; conditions: Echinochloa crus-galli, post-emergence, 240 h, Postemergence, read-out: Plant response rating, Barnyardgrass
Procedure, shortened: as §1

[12] = test system: corn (Zea mays); assay: Test A postemergence; conditions: Zea mays, post-emergence, 240 h, Postemergence
Procedure, shortened: as §1

[13] = test system: Kochia (Kochia scoparia); assay: Test A postemergence; conditions: Bassia scoparia, post-emergence, 240 h, Postemergence, read-out: Plant response rating, Kochia
Procedure, shortened: as §1

[14] = test system: blackgrass (Alopecurus myosuroides); assay: Test A postemergence; conditions: Alopecurus myosuroides, post-emergence, 240 h, Postemergence, read-out: Plant response rating, Blackgrass
Procedure, shortened: as §1

[15] = test system: ryegrass, Italian (Italian ryegrass, Lolium multiflorum); assay: Test A postemergence; conditions: Lolium multiflorum, post-emergence, 240 h, Postemergence, read-out: Plant response rating, Ryegrass, Italian
Procedure, shortened: as §1

[16] = test system: giant foxtail (Setaria faberii); assay: Test A postemergence; conditions: Setaria faberi, post-emergence, 240 h, Postemergence, read-out: Plant response rating, Foxtail, Giant
Procedure, shortened: as §1

[17] = test system: Galium (catchweed bedstraw, Galium aparine); assay: Test A postemergence; conditions: Galium, post-emergence, 240 h, Postemergence, read-out: Plant response rating, Galium
Procedure, shortened: as §1

[18] = test system: ragweed (common ragweed, Ambrosia elatior); assay: Test A postemergence; conditions: Ambrosia artemisiifolia, post-emergence, 240 h, Postemergence, read-out: Plant response rating, Ragweed
Procedure, shortened: as §1

[19] = test system: pigweed (Amaranthus retroflexus); assay: Test A postemergence; conditions: Amaranthus retroflexus, post-emergence, 240 h, Postemergence, read-out: Plant response rating, Pigweed
Procedure, shortened: as §1

[20] = test system: wheat (Triticum aestivum); assay: Test A postemergence; conditions: Triticum aestivum, post-emergence, 240 h, Postemergence, read-out: Plant response rating, Wheat
Procedure, shortened: as §1

[21] = 125 g ai/ha, visual injury after approximately 10 d, 0 to 100 scale where 0 is no effect and 100 is complete control
[22] = 31 g ai/ha, visual injury after approx. 10 d, 0 to 100 scale, 0 no effect, 100 complete control

O=C(Nc1cccc(F)c1F)[C@H]1C(=O)N(OCc2ccccc2)CC[C@@H]1c1cccc(Cl)c1 [Compound 997]
0%: pest or weed control at 125 g/ha ([1]; 125 g ai/ha, visual injury rating after approximately 10 d, read-out: Barnyardgrass plant response rating (0 to 100 scale, 0 is no effect, 100 is complete control)) | pest or weed control at 31 g/ha ([1]; 31 g ai/ha, 0 to 100 scale (0 no effect, 100 complete control), read-out: Plant response rating, Barnyardgrass) | pest or weed control at 125 g/ha ([2]; 125 g ai/ha, visual injury rating after approximately 10 d, read-out: Kochia plant response rating (0 to 100 scale, 0 is no effect, 100 is complete control)) | pest or weed control at 31 g/ha ([2]; 31 g ai/ha, 0 to 100 scale (0 no effect, 100 complete control), read-out: Plant response rating, Kochia) | pest or weed control at 125 g/ha ([3]; 125 g ai/ha, visual injury rating after approximately 10 d, read-out: Ryegrass, Italian plant response rating (0 to 100 scale, 0 is no effect, 100 is complete control)) | pest or weed control at 31 g/ha ([3]; 31 g ai/ha, 0 to 100 scale (0 no effect, 100 complete control), read-out: Plant response rating, Ryegrass, Italian) | pest or weed control at 125 g/ha ([4]; 125 g ai/ha, visual injury rating after approximately 10 d, read-out: Foxtail, Giant plant response rating (0 to 100 scale, 0 is no effect, 100 is complete control)) | pest or weed control at 31 g/ha ([4]; 31 g ai/ha, 0 to 100 scale (0 no effect, 100 complete control), read-out: Plant response rating, Foxtail, Giant) | pest or weed control at 125 g/ha ([5]; 125 g ai/ha, visual injury rating after approximately 10 d, read-out: Ragweed plant response rating (0 to 100 scale, 0 is no effect, 100 is complete control)) | pest or weed control at 31 g/ha ([5]; 31 g ai/ha, 0 to 100 scale (0 no effect, 100 complete control), read-out: Plant response rating, Ragweed) | pest or weed control at 125 g/ha ([6]; 125 g ai/ha, visual injury rating after approximately 10 d, read-out: Pigweed plant response rating (0 to 100 scale, 0 is no effect, 100 is complete control)) | pest or weed control at 31 g/ha ([6]; 31 g ai/ha, 0 to 100 scale (0 no effect, 100 complete control), read-out: Plant response rating, Pigweed) | pest or weed control at 250 g/ha [7] | pest or weed control at 250 g/ha [8] | pest or weed control at 250 g/ha [9] | pest or weed control at 250 g/ha [10] | pest or weed control at 125 g/ha [11, 21] | pest or weed control at 31 g/ha [11, 22] | Corn plant response rating (crop injury, 0 = no effect, 100 = complete kill) at 125 g/ha [12, 21] | Corn plant response rating (crop injury, 0 = no effect, 100 = complete kill) at 31 g/ha [12, 22] | pest or weed control at 125 g/ha [13, 21] | pest or weed control at 31 g/ha [13, 22] | pest or weed control at 125 g/ha [14, 21] | pest or weed control at 31 g/ha [14, 22] | pest or weed control at 125 g/ha [15, 21] | pest or weed control at 31 g/ha [15, 22] | pest or weed control at 125 g/ha [16, 21] | pest or weed control at 31 g/ha [16, 22] | pest or weed control at 125 g/ha [17, 21] | pest or weed control at 31 g/ha [17, 22] | pest or weed control at 125 g/ha [18, 21] | pest or weed control at 31 g/ha [18, 22] | pest or weed control at 125 g/ha [19, 21] | pest or weed control at 31 g/ha [19, 22] | plant injury at 125 g/ha [20, 21] | plant injury at 31 g/ha [20, 22]
